The assay deals with ear swelling. Conditions: conventional form, 200 mg dose (highest dosage used), topical, after 6 hours of exposure, croton oil.

Text: Croton oil was applied to the left and right ears of five animals to cause inflammation. Two hours later, a nanoparticle preparation of Celebrex or conventional form of Celebrex® was applied topically to the left or right ear.

With `Cc1ccc(-c2cc(C(F)(F)F)nn2-c2ccc(S(N)(=O)=O)cc2)cc1` [Celebrex® delivered in conventional form], the “reduction in ear swelling” value was found to be 60%.
